This passage reports IC50 results from US20190152962A1, “CYCLOPROPYL DERIVATIVES AS ROR-GAMMA MODULATORS” (CADILA HEALTHCARE LIMITED, priority 2016, published 2019).

In general, IC50 refers to the concentration needed to halve the response being measured.

One experiment deals with T1, full length human RORγt (Homo sapiens, UniProt P51449).
T1 construct: full length human RORγt together in COS-7 cells; expressed in transfected cells; host or cells: COS-7
T1 sequence (P51449 1-497 isoform P51449-2): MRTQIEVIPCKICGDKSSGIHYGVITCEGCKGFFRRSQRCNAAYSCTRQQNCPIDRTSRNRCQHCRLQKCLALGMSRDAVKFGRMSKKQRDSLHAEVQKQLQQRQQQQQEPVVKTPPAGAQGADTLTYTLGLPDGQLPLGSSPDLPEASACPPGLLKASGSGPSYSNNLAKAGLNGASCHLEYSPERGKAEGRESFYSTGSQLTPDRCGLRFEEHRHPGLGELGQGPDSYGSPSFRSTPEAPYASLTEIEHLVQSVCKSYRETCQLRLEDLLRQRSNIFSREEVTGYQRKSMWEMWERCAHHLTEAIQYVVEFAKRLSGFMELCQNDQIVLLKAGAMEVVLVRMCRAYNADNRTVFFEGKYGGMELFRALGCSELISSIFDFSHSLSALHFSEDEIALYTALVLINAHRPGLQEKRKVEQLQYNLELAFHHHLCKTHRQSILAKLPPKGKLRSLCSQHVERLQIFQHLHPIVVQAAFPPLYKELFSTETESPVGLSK
In words: 5×RORE based luciferase assay. In kind it is cell-based. The settings on record: COS-7 cells transfected with 5×RORE-Luc and hRORγt, 18-20 h treatment. The method, then: Human RORγt (hRORγt) inhibitors were screened in RORE (RORγt Response Element) based Luciferase assay by transient transfection of 5×RORE (5 tandem repeats of RORγt Response Element) and full length human RORγt together in COS-7 cells. COS-7 cells were maintained as monolayer in complete DMEM (High Glucose) medium in presence of 2 mM Glutamin and 1× Sodium Pyruvate. Day before transfection, 15000 cells were seeded in 96 well cell culture plate in 100 μl antibiotic free medium and incubated at 37° C. in 5% CO2 containing humidified chamber O/N. Prior to transfection, cells were fed with fresh complete growth medium and incubated until the addition of transfection complex. Transfection complex for the required numbers of wells were prepared from pGL2-promoter-5×RORE-Luc plasmid, pcDNA3.1 (+)-hRORγt expression plasmid, pβ-GAL plasmid (transfection control), and Lipofectamine 3000 (Invitrogen). 50 μl of transfection complex were added in 100 μl of complete medium to respective wells, mixed gently and plate was incubated for 5-6 h at 37° C. in 5% CO2 containing humidified chamber. After 5 h of transfection, content of the wells were aspirated and cells were treated with increasing concentration of RORγt inverse agonist in medium devoid of serum with a final DMSO concentration of 0.2% for 18-20 h at 37° C. in 5% CO2 containing humidified chamber. Next day, cells were lysed and the lysates were assayed for luciferase and β-GAL activity using Promega's luciferase assay system and an in-house made β-GAL assay buffer respectively. Luciferase signals were normalized with β-GAL and % activity was determined with respect to that of 10 nM control ligand.
IC50 of selected compounds were then determined by nonlinear regression analysis of % activity, plotted against compound concentration (Table 4).

Experiment [1] deals with secreted IL-17 in peripheral blood mononuclear cells (PBMCs). The experiment can be described thus: Human IL-17 inhibition assay. In kind it is cell-based. The settings on record: PBMC, anti-CD3/anti-CD28, 72 h, read-out: IL17 IC50. The procedure: Peripheral blood mononuclear cells (PBMCs) were isolated from healthy volunteers and subjected to T cell polarization assay. Two million PBMCs were placed on anti-CD3 (Biolegend, US) coated 96-well plates and 1 μg/mL of anti-CD28 (Biolegend, US) was added along with RORγt inhibitors or the vehicle control and incubated at 37° C. and 5% CO2 for 72 h. At the end of incubation time, the supernatant was collected and analyzed for secreted IL-17 using sandwich enzyme immunoassay (Mabtech AB, Sweden). The results were analyzed using Graphpad Prism and the half-maximal inhibitory concentrations (IC50) of the test compounds were derived (Table 4).

With `CCS(=O)(=O)c1ccc(CC(=O)Nc2cc(Cl)c(C3(c4noc(-c5ccc(OC)nc5)n4)CC3)c(Cl)c2)cc1` [Example 20, N-(3,5-dichloro-4-(1-(5-(6-methoxypyridin-3-yl)-1,2,4-oxadiazol-3-yl)cyclopropyl)phenyl)-2-(4-(ethylsulfonyl)phenyl)acetamide], the half-maximal inhibitory concentration (IC50) against full length human RORγt was found to be 15.8 nM; in experiment [1], 11.3 nM.

As to `CCS(=O)(=O)c1ccc(CC(=O)Nc2cc(Cl)c(C3(c4noc(C(C)C)n4)CC3)c(Cl)c2)cc1` [Example 23, N-(3,5-dichloro-4-(1-(5-isopropyl-1,2,4-oxadiazol-3-yl)cyclopropyl)phenyl)-2-(4-(ethylsulfonyl)phenyl)acetamide], the IC50 at full length human RORγt came out at 1.4 nM; in experiment [1], 21 nM.

Take `CCS(=O)(=O)c1ccc(CC(=O)Nc2cc(Cl)c(C3(c4noc(C5CC5)n4)CC3)c(Cl)c2)cc1` [Example 25, N-(3,5-dichloro-4-(1-(5-cyclopropyl-1,2,4-oxadiazol-3-yl)cyclopropyl)phenyl)-2-(4-(ethylsulfonyl)phenyl)acetamide]: the results for the IC50 (against full length human RORγt; in experiment [1]) were 1.5 nM and 14 nM, respectively.

In the case of `CCS(=O)(=O)c1ccc(CC(=O)Nc2cc(Cl)c(C3(c4noc(C5CC(F)(F)C5)n4)CC3)c(Cl)c2)cc1` [Example 26, N-(3,5-dichloro-4-(1-(5-(3,3-difluorocyclobutyl)-1,2,4-oxadiazol-3-yl)cyclopropyl)phenyl)-2-(4-(ethylsulfonyl)phenyl)acetamide], the IC50 was 2.5 nM at full length human RORγt and 7.3 nM in experiment [1].

On to `CCS(=O)(=O)c1ccc(CC(=O)Nc2cc(Cl)c(C3(c4noc(C5CCOCC5)n4)CC3)c(Cl)c2)cc1` [Example 27, N-(3,5-dichloro-4-(1-(5-(tetrahydro-2H-pyran-4-yl)-1,2,4-oxadiazol-3-yl)cyclopropyl)phenyl)-2-(4-(ethylsulfonyl)phenyl)acetamide], for which the IC50 turned out to be 13 nM against full length human RORγt and 10.8 nM in experiment [1].

Turning to `CCS(=O)(=O)c1ccc(CC(=O)Nc2cc(F)c(C3(c4noc(-c5ccc(F)cc5)n4)CC3)c(F)c2)cc1` [Example 28, N-(3,5-difluoro-4-(1-(5-(4-fluorophenyl)-1,2,4-oxadiazol-3-yl)cyclopropyl)phenyl)-2-(4-(ethylsulfonyl)phenyl)acetamide], the IC50 against full length human RORγt was 5.8 nM; in experiment [1], 41.6 nM.

`CCS(=O)(=O)c1ccc(CC(=O)Nc2cc(F)c(C3(c4noc(-c5ccc(F)cc5)n4)CC3)c(Cl)c2)cc1` [Example 29, N-(3-chloro-5-fluoro-4-(1-(5-(4-fluorophenyl)-1,2,4-oxadiazol-3-yl)cyclopropyl)phenyl)-2-(4-(ethylsulfonyl)phenyl)acetamide]: the values for the IC50 (on full length human RORγt; in experiment [1]) were 19.4 nM and 19 nM, respectively.

On to `CCS(=O)(=O)c1ccc(CC(=O)Nc2cc(F)c(C3(c4noc(-c5ccc(C(F)(F)F)cc5)n4)CC3)c(Cl)c2)cc1` [Example 31, N-(3-chloro-5-fluoro-4-(1-(5-(4-(trifluoromethyl)phenyl)-1,2,4-oxadiazol-3-yl)cyclopropyl)phenyl)-2-(4-(ethylsulfonyl)phenyl)acetamide], for which the IC50 on full length human RORγt was determined as 12.6 nM; in experiment [1] it was 50 nM.

As for `CCS(=O)(=O)c1ccc(CC(=O)Nc2cc(F)c(C3(c4noc(-c5ccc(C#N)cc5)n4)CC3)c(Cl)c2)cc1` [Example 32, N-(3-chloro-4-(1-(5-(4-cyanophenyl)-1,2,4-oxadiazol-3-yl)cyclopropyl)-5-fluorophenyl)-2-(4-(ethylsulfonyl)phenyl)acetamide], the IC50 came out at 5.96 nM against full length human RORγt and 18 nM in experiment [1].

Take `CCS(=O)(=O)c1ccc(CC(=O)Nc2cc(C)c(C3(c4noc(-c5ccc(F)cc5)n4)CC3)c(C)c2)cc1` [Example 33, 2-(4-(ethylsulfonyl)phenyl)-N-(4-(1-(5-(4-fluorophenyl)-1,2,4-oxadiazol-3-yl)cyclopropyl)-3,5-dimethylphenyl)acetamide]: the values for the IC50 (on full length human RORγt; in experiment [1]) were 20.2 nM and 24 nM, respectively.

For `CCS(=O)(=O)c1ccc(CC(=O)Nc2cc(Cl)c(C3(c4nc(-c5ccc(F)cc5)no4)CC3)c(Cl)c2)cc1` [Example 35, N-(3,5-dichloro-4-(1-(3-(4-fluorophenyl)-1,2,4-oxadiazol-5-yl)cyclopropyl)phenyl)-2-(4-(ethylsulfonyl)phenyl)acetamide], the IC50 worked out at 2.3 nM at full length human RORγt and 12 nM in experiment [1].

In the case of `CCS(=O)(=O)c1ccc(CC(=O)Nc2cc(Cl)c(C3(c4nc5ccc(F)cc5o4)CC3)c(Cl)c2)cc1` [Example 36, N-(3,5-dichloro-4-(1-(6-fluorobenzo[d]oxazol-2-yl)cyclopropyl)phenyl)-2-(4-(ethylsulfonyl)phenyl)acetamide], the IC50 against full length human RORγt came out at 2.44 nM; in experiment [1], 19 nM.

With `CCS(=O)(=O)c1ccc(CC(=O)Nc2cc(Cl)c(C3(c4ncc(-c5ccc(F)cc5)o4)CC3)c(Cl)c2)cc1` [Example 38, N-(3,5-dichloro-4-(1-(5-(4-fluorophenyl)oxazol-2-yl)cyclopropyl)phenyl)-2-(4-(ethylsulfonyl)phenyl)acetamide], the figures for the IC50 (against full length human RORγt; in experiment [1]) were 1.5 nM and 23 nM, respectively.

As to `CCS(=O)(=O)c1ccc(CC(=O)Nc2cc(Cl)c(C3(c4ncc(-c5ccc(Cl)cc5)o4)CC3)c(Cl)c2)cc1` [Example 39, N-(3,5-dichloro-4-(1-(5-(4-chlorophenyl)oxazol-2-yl)cyclopropyl)phenyl)-2-(4-(ethylsulfonyl)phenyl)acetamide], the IC50 on full length human RORγt was 22.5 nM; in experiment [1], 22 nM.

On to `CCS(=O)(=O)c1ccc(CC(=O)Nc2cc(Cl)c(C3(c4noc(-c5ccc(F)cc5)n4)CC3)c(Cl)c2)nc1` [Example 41, N-(3,5-dichloro-4-(1-(5-(4-fluorophenyl)-1,2,4-oxadiazol-3-yl)cyclopropyl)phenyl)-2-(5-(ethylsulfonyl)pyridin-2-yl)acetamide], for which the results for the IC50 (at full length human RORγt; in experiment [1]) were 0.76 nM and 15.5 nM, respectively.

Regarding `CCS(=O)(=O)c1ccc(CC(=O)Nc2cc(Cl)c(C3(c4noc(-c5ccc(F)c(F)c5)n4)CC3)c(Cl)c2)nc1` [Example 44, N-(3,5-dichloro-4-(1-(5-(3,4-difluorophenyl)-1,2,4-oxadiazol-3-yl)cyclopropyl)phenyl)-2-(5-(ethylsulfonyl)pyridin-2-yl)acetamide], the IC50 came to 10.3 nM against full length human RORγt and 43 nM in experiment [1].

Take `CCS(=O)(=O)c1ccc(CC(=O)Nc2cc(Cl)c(C3(c4noc(-c5ccc(F)cc5Cl)n4)CC3)c(Cl)c2)nc1` [Example 46, N-(3,5-dichloro-4-(1-(5-(2-chloro-4-fluorophenyl)-1,2,4-oxadiazol-3-yl)cyclopropyl)phenyl)-2-(5-(ethylsulfonyl)pyridin-2-yl)acetamide]: the values for the IC50 (against full length human RORγt; in experiment [1]) were 12.9 nM and 17.1 nM, respectively.

Regarding `CCS(=O)(=O)c1ccc(CC(=O)Nc2cc(Cl)c(C3(c4noc(-c5ccc(F)c(Cl)c5)n4)CC3)c(Cl)c2)nc1` [Example 47, N-(3,5-dichloro-4-(1-(5-(3-chloro-4-fluorophenyl)-1,2,4-oxadiazol-3-yl)cyclopropyl)phenyl)-2-(5-(ethylsulfonyl)pyridin-2-yl)acetamide], the IC50 on full length human RORγt came to 10.1 nM; in experiment [1], 17.9 nM.

As for `CCS(=O)(=O)c1ccc(CC(=O)Nc2cc(Cl)c(C3(c4noc(-c5ccc(Cl)c(Cl)c5)n4)CC3)c(Cl)c2)nc1` [Example 48, N-(3,5-dichloro-4-(1-(5-(3,4-dichlorophenyl)-1,2,4-oxadiazol-3-yl)cyclopropyl)phenyl)-2-(5-(ethylsulfonyl)pyridin-2-yl)acetamide], the IC50 is 10.5 nM at full length human RORγt and 38.9 nM in experiment [1].
